Test results as given in PubChem BioAssay AID1963965 (Molecular Pharmacology Branch, DTP, NCI, 2024).

Tested on: 996289-038-R-J1-PDC spheroid viability
Test: Anticancer human tumor 996289-038-R-J1-PDC patient-derived colon adenocarcinoma cell line growth inhibition [PI3K]
Details: spheroids with HUVEC and MSC; for IC50: curve of first compound; for viability, T/C: stronger effect = lower value
Procedure, shortened: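 Viability of mixed-cell spheroids was determined after exposure to pairwise combinations, one partner being inavolisib, alpelisib, duvelisib or copanlisib. Highest tested concentration matched clinical Cmax where known and 10 microM where not, descending in half-log steps.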

[1] = second compound 0.0316 µM, first compound 0.0316 µM
[2] = second compound 0.0316 µM, first compound 0.1 µM
[3] = second compound 0.0316 µM, first compound 0.316 µM
[4] = second compound 0.0316 µM, first compound 1 µM
[5] = second compound 0.0316 µM, first compound 3.16 µM
[6] = second compound 0.0316 µM, first compound 10 µM
[7] = second compound 0.1 µM, first compound 0.0316 µM
[8] = second compound 0.1 µM, first compound 0.1 µM
[9] = second compound 0.1 µM, first compound 0.316 µM
[10] = second compound 0.1 µM, first compound 1 µM
[11] = second compound 0.1 µM, first compound 3.16 µM
[12] = second compound 0.1 µM, first compound 10 µM
[13] = second compound 0.316 µM, first compound 0.0316 µM
[14] = second compound 0.316 µM, first compound 0.1 µM
[15] = second compound 0.316 µM, first compound 0.316 µM
[16] = second compound 0.316 µM, first compound 1 µM
[17] = second compound 0.316 µM, first compound 3.16 µM
[18] = second compound 0.316 µM, first compound 10 µM
[19] = second compound 1 µM, first compound 0.0316 µM
[20] = second compound 1 µM, first compound 0.1 µM
[21] = second compound 1 µM, first compound 0.316 µM
[22] = second compound 1 µM, first compound 1 µM
[23] = second compound 1 µM, first compound 3.16 µM
[24] = second compound 1 µM, first compound 10 µM
[25] = second compound 3.16 µM, first compound 0.0316 µM
[26] = second compound 3.16 µM, first compound 0.1 µM
[27] = second compound 3.16 µM, first compound 0.316 µM
[28] = second compound 3.16 µM, first compound 1 µM
[29] = second compound 3.16 µM, first compound 3.16 µM
[30] = second compound 3.16 µM, first compound 10 µM
[31] = second compound 10 µM, first compound 0.0316 µM
[32] = second compound 10 µM, first compound 0.1 µM
[33] = second compound 10 µM, first compound 0.316 µM
[34] = second compound 10 µM, first compound 1 µM
[35] = second compound 10 µM, first compound 3.16 µM
[36] = second compound 10 µM, first compound 10 µM
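Note: spheroids exposed to compounds for seven days before viability read.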
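Throughout, for viability, T/C: luminescence used as a proxy for viable cell amount; percent viability relative to DMSO vehicle control as 100%.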

CC1(C)CCC(CN2CCN(c3ccc(C(=O)NS(=O)(=O)c4ccc(NCC5CCOCC5)c([N+](=O)[O-])c4)c(Oc4cnc5[nH]ccc5c4)c3)CC2)=C(c2ccc(Cl)cc2)C1 + CC(Nc1ncnc2nc[nH]c12)c1cc2cccc(Cl)c2c(=O)n1-c1ccccc1
IC50 (second compound 0.0316 µM): > 10 µM | IC50 (second compound 0.1 µM): > 10 µM | IC50 (second compound 0.316 µM): > 10 µM | IC50 (second compound 1 µM): > 10 µM | IC50 (second compound 3.16 µM): 9.57 µM | IC50 (second compound 10 µM): > 10 µM | viability, T/C [1]: 105% | viability, T/C [2]: 86.3% | viability, T/C [3]: 106% | viability, T/C [4]: 103% | viability, T/C [5]: 114% | viability, T/C [6]: 65% | viability, T/C [7]: 108% | viability, T/C [8]: 96.9% | viability, T/C [9]: 99.4% | viability, T/C [10]: 119% | viability, T/C [11]: 128% | viability, T/C [12]: 67% | viability, T/C [13]: 111% | viability, T/C [14]: 96.3% | viability, T/C [15]: 104% | viability, T/C [16]: 101% | viability, T/C [17]: 112% | viability, T/C [18]: 60.9% | viability, T/C [19]: 102% | viability, T/C [20]: 88.7% | viability, T/C [21]: 103% | viability, T/C [22]: 114% | viability, T/C [23]: 124% | viability, T/C [24]: 63.1% | viability, T/C [25]: 109% | viability, T/C [26]: 92.3% | viability, T/C [27]: 102% | viability, T/C [28]: 107% | viability, T/C [29]: 112% | viability, T/C [30]: 47.7% | viability, T/C [31]: 88.4% | viability, T/C [32]: 88.9% | viability, T/C [33]: 85.7% | viability, T/C [34]: 102% | viability, T/C [35]: 108% | viability, T/C [36]: 54.6%

C[C@@H](NC(=O)c1ncnc(N)c1Cl)c1ncc(C(=O)Nc2cc(C(F)(F)F)c(Cl)cn2)s1 + CC(Nc1ncnc2nc[nH]c12)c1cc2cccc(Cl)c2c(=O)n1-c1ccccc1
IC50 (second compound 0.0316 µM): > 10 µM | IC50 (second compound 0.1 µM): > 10 µM | IC50 (second compound 0.316 µM): > 10 µM | IC50 (second compound 1 µM): > 10 µM | IC50 (second compound 3.16 µM): > 10 µM | IC50 (second compound 10 µM): > 10 µM | viability, T/C [1]: 102% | viability, T/C [2]: 102% | viability, T/C [3]: 98.6% | viability, T/C [4]: 128% | viability, T/C [5]: 137% | viability, T/C [6]: 126% | viability, T/C [7]: 115% | viability, T/C [8]: 85.2% | viability, T/C [9]: 125% | viability, T/C [10]: 120% | viability, T/C [11]: 124% | viability, T/C [12]: 111% | viability, T/C [13]: 105% | viability, T/C [14]: 103% | viability, T/C [15]: 116% | viability, T/C [16]: 108% | viability, T/C [17]: 142% | viability, T/C [18]: 130% | viability, T/C [19]: 105% | viability, T/C [20]: 108% | viability, T/C [21]: 95.8% | viability, T/C [22]: 108% | viability, T/C [23]: 135% | viability, T/C [24]: 120% | viability, T/C [25]: 83.3% | viability, T/C [26]: 93.9% | viability, T/C [27]: 115% | viability, T/C [28]: 119% | viability, T/C [29]: 140% | viability, T/C [30]: 116% | viability, T/C [31]: 93.1% | viability, T/C [32]: 102% | viability, T/C [33]: 102% | viability, T/C [34]: 98.1% | viability, T/C [35]: 122% | viability, T/C [36]: 101%
